Laboratory results as given in PubChem BioAssay (NCI).
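Where inhibition never reached the appropriate level, the endpoint shown equals the highest concentration tested. Otherwise, values were interpolated linearly from a five-concentration, 48-hour dose response in 96-well plates. GI50 = concentration required for 50% inhibition of growth. TGI denotes the concentration required for complete inhibition of growth.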

Experiments:
Assay in all cases: NCI tumour cell line growth inhibition, 48 h
SN12C renal = tested on: SN12C renal
UO-31 renal = tested on: UO-31 renal
NCI-H460 lung = tested on: NCI-H460 lung
SF-268 CNS = tested on: SF-268 CNS
CAKI-1 renal = tested on: CAKI-1 renal
SNB-19 CNS = tested on: SNB-19 CNS
A549 NSCLC = tested on: A549 NSCLC
OVCAR-4 ovarian = tested on: OVCAR-4 ovarian
K-562 leukemia = tested on: K-562 leukemia
HOP-92 NSCLC = tested on: HOP-92 NSCLC
UACC-62 melanoma = tested on: UACC-62 melanoma
COLO 205 colon = tested on: COLO 205 colon
OVCAR-3 ovarian = tested on: OVCAR-3 ovarian
SK-MEL-28 melanoma = tested on: SK-MEL-28 melanoma
MOLT-4 leukemia = tested on: MOLT-4 leukemia
KM12 colon = tested on: KM12 colon
PC-3 prostate = tested on: PC-3 prostate
LOX IMVI melanoma = tested on: LOX IMVI melanoma
SK-OV-3 ovarian = tested on: SK-OV-3 ovarian
BT-549 breast = tested on: BT-549 breast
MALME-3M melanoma = tested on: MALME-3M melanoma
DU-145 prostate = tested on: DU-145 prostate
MCF7 breast = tested on: MCF7 breast
U251 CNS = tested on: U251 CNS
SK-MEL-2 melanoma = tested on: SK-MEL-2 melanoma
SF-539 CNS = tested on: SF-539 CNS
IGROV1 ovarian = tested on: IGROV1 ovarian
HT29 colon = tested on: HT29 colon
SNB-75 CNS = tested on: SNB-75 CNS
SF-295 CNS = tested on: SF-295 CNS
MDA-MB-231 breast = tested on: MDA-MB-231 breast
HS 578T breast = tested on: HS 578T breast
RXF 393 renal = tested on: RXF 393 renal
NCI-H226 lung = tested on: NCI-H226 lung
786-0 renal = tested on: 786-0 renal
OVCAR-8 ovarian = tested on: OVCAR-8 ovarian
SK-MEL-5 melanoma = tested on: SK-MEL-5 melanoma
ACHN renal = tested on: ACHN renal
UACC-257 melanoma = tested on: UACC-257 melanoma
HOP-62 NSCLC = tested on: HOP-62 NSCLC
SW-620 colon = tested on: SW-620 colon
HCT-116 colon = tested on: HCT-116 colon
CCRF-CEM leukemia = tested on: CCRF-CEM leukemia
A498 renal = tested on: A498 renal
T-47D breast = tested on: T-47D breast
M14 melanoma = tested on: M14 melanoma
HCT-15 colon = tested on: HCT-15 colon
TK-10 renal = tested on: TK-10 renal
HL-60(TB) leukemia = tested on: HL-60(TB) leukemia
NCI-H522 lung = tested on: NCI-H522 lung
MDA-MB-435 = tested on: MDA-MB-435
EKVX NSCLC = tested on: EKVX NSCLC

CCC(C)C(NC(=O)C1CCCN1C(=O)C(NC(=O)C(C)N)C(C)C)C(N)=O (stereo not drawn)
GI50 (SN12C renal): > 100 µM
TGI (SN12C renal): > 100 µM
GI50 (UO-31 renal): > 100 µM
TGI (UO-31 renal): > 100 µM
GI50 (NCI-H460 lung): > 100 µM
TGI (NCI-H460 lung): > 100 µM
GI50 (SF-268 CNS): > 100 µM
TGI (SF-268 CNS): > 100 µM
GI50 (CAKI-1 renal): > 100 µM
TGI (CAKI-1 renal): > 100 µM
GI50 (SNB-19 CNS): > 100 µM
TGI (SNB-19 CNS): > 100 µM
GI50 (A549 NSCLC): > 100 µM
TGI (A549 NSCLC): > 100 µM
GI50 (OVCAR-4 ovarian): > 100 µM
TGI (OVCAR-4 ovarian): > 100 µM
GI50 (K-562 leukemia): > 100 µM
TGI (K-562 leukemia): > 100 µM
GI50 (HOP-92 NSCLC): > 100 µM
TGI (HOP-92 NSCLC): > 100 µM
GI50 (UACC-62 melanoma): > 100 µM
TGI (UACC-62 melanoma): > 100 µM
GI50 (COLO 205 colon): > 100 µM
TGI (COLO 205 colon): > 100 µM
GI50 (OVCAR-3 ovarian): > 100 µM
TGI (OVCAR-3 ovarian): > 100 µM
GI50 (SK-MEL-28 melanoma): > 100 µM
TGI (SK-MEL-28 melanoma): > 100 µM
GI50 (MOLT-4 leukemia): > 100 µM
TGI (MOLT-4 leukemia): > 100 µM
GI50 (KM12 colon): > 100 µM
TGI (KM12 colon): > 100 µM
GI50 (PC-3 prostate): > 100 µM
TGI (PC-3 prostate): > 100 µM
GI50 (LOX IMVI melanoma): > 100 µM
TGI (LOX IMVI melanoma): > 100 µM
GI50 (SK-OV-3 ovarian): > 100 µM
TGI (SK-OV-3 ovarian): > 100 µM
GI50 (BT-549 breast): > 100 µM
TGI (BT-549 breast): > 100 µM
GI50 (MALME-3M melanoma): 52.3 µM
TGI (MALME-3M melanoma): > 100 µM
GI50 (DU-145 prostate): > 100 µM
TGI (DU-145 prostate): > 100 µM
GI50 (MCF7 breast): > 100 µM
TGI (MCF7 breast): > 100 µM
GI50 (U251 CNS): > 100 µM
TGI (U251 CNS): > 100 µM
GI50 (SK-MEL-2 melanoma): > 100 µM
TGI (SK-MEL-2 melanoma): > 100 µM
TGI (SF-539 CNS): > 100 µM
GI50 (IGROV1 ovarian): > 100 µM
TGI (IGROV1 ovarian): > 100 µM
GI50 (HT29 colon): > 100 µM
TGI (HT29 colon): > 100 µM
GI50 (SNB-75 CNS): > 100 µM
TGI (SNB-75 CNS): > 100 µM
GI50 (SF-295 CNS): > 100 µM
TGI (SF-295 CNS): > 100 µM
GI50 (MDA-MB-231 breast): > 100 µM
TGI (MDA-MB-231 breast): > 100 µM
GI50 (HS 578T breast): > 100 µM
TGI (HS 578T breast): > 100 µM
GI50 (RXF 393 renal): > 100 µM
TGI (RXF 393 renal): > 100 µM
GI50 (NCI-H226 lung): > 100 µM
TGI (NCI-H226 lung): > 100 µM
GI50 (786-0 renal): > 100 µM
TGI (786-0 renal): > 100 µM
GI50 (OVCAR-8 ovarian): > 100 µM
TGI (OVCAR-8 ovarian): > 100 µM
GI50 (SK-MEL-5 melanoma): > 100 µM
TGI (SK-MEL-5 melanoma): > 100 µM
GI50 (ACHN renal): > 100 µM
TGI (ACHN renal): > 100 µM
GI50 (UACC-257 melanoma): > 100 µM
TGI (UACC-257 melanoma): > 100 µM
GI50 (HOP-62 NSCLC): > 100 µM
TGI (HOP-62 NSCLC): > 100 µM
GI50 (SW-620 colon): > 100 µM
TGI (SW-620 colon): > 100 µM
GI50 (HCT-116 colon): > 100 µM
TGI (HCT-116 colon): > 100 µM
GI50 (CCRF-CEM leukemia): > 100 µM
TGI (CCRF-CEM leukemia): > 100 µM
GI50 (A498 renal): > 100 µM
TGI (A498 renal): > 100 µM
GI50 (T-47D breast): > 100 µM
TGI (T-47D breast): > 100 µM
GI50 (M14 melanoma): > 100 µM
TGI (M14 melanoma): > 100 µM
GI50 (HCT-15 colon): > 100 µM
TGI (HCT-15 colon): > 100 µM
GI50 (TK-10 renal): > 100 µM
TGI (TK-10 renal): > 100 µM
GI50 (HL-60(TB) leukemia): > 100 µM
TGI (HL-60(TB) leukemia): > 100 µM
GI50 (NCI-H522 lung): > 100 µM
TGI (NCI-H522 lung): > 100 µM
GI50 (MDA-MB-435): > 100 µM
TGI (MDA-MB-435): > 100 µM
GI50 (EKVX NSCLC): 77.2 µM
TGI (EKVX NSCLC): > 100 µM
